Columns and labels:
[1] = in vivo; design: species or system mice; conditions: male, C57BL/6JRj, mouse, ip, 10 mg/kg
Experimental: To evaluate the ability of pro-JON-11 (10) and JON-11 to penetrate the blood-brain barrier, a brain-to-plasma distribution ratio (B/P ratio) was obtained. All subjects were male C57BL/6JRj mice (24-26 g, Janvier Labs, France) housed in groups of three-four with ad libitum access to food and water. The mice were maintained under diurnal conditions (12-h light/dark cycle with lights on at 7 AM) in a temperature (22±1 °C) and humidity-controlled room (50±10%). Ethical permission for the procedures used in this in vivo study was granted by the Danish Animal Experiments Inspectorate.
Compounds were dissolved in PEG-400 (Sigma) at 20% of the final required volume. The final volume was then made up by 10% (w/v) hydroxypropyl-beta-cyclodextrin (Sigma Aldrich) in sterile saline. The solution was sonicated for 5 min. The JON-11 solution was pH-adjusted to 7.4 with 0.2% 2M NaOH.
Both compounds were injected i.p. at a dose of 10 mg/kg (n=3 for each compound). […] After 30 min, the animals were sacrificed by decapitation, trunk blood was collected in EDTA-coated tubes and the brain was gently removed. Blood and tissues were temporarily stored on ice until plasma and brain homogenate preparation. Blood plasma was separated from cells by centrifugation for 10 min at 1,500 x g at 4 °C and plasma harvested. […]
Plasma and brain exposure of JON-11 and pro-JON-11 were evaluated in male mice. […]

[2] = tested on: DTA mouse model; assay: DTA mouse model of narcolepsy (EEG/EMG, cataplexy); format: in vivo; conditions: after 8-11 days of chronic administration, 100 mg/kg i.p.
Experimental: Using the DTA mouse model (Tabuchi et al., 2014) we determined changes in sleep-wake EEG/EMG patterns (including cataplexy) at different time points (1 day and 8-11 days) under the influence of JON-11. After drug cessation day 14, EEG/EMG changes were mapped up to day 33. Under anesthesia with isoflurane (2% to 2.5% in O2) electrodes were placed in the scull and neck muscles of the mice. After 5-10 days recovery the electrodes are connected to a recording system, and EEG/EMG signals are recorded with synchronised video recordings. From the data, sleep/wake parameters and cataplexy episodes are scored and calculated. Analyses were performed by an observer blinded to the treatment groups.

O=C(O)Cc1cn2nc(-c3ccc(Cl)cc3)ccc2n1 [JON-11, 2-(6-(4-Chlorophenyl)imidazo[1,2-b]pyridazin-2-yl)acetic acid]
Kp at 30 min [1]: 0.05 | number of cataplexy attacks [2]: significantly decreases

Source: patent EP3952873B1 (priority 2019, dated 2020)
